Details: 283.15 K, Liquid, Vibrating tube method

CCCCCCCC(=O)OCC(COC(=O)CCCCCCC)(COC(=O)CCCCCCC)COC(=O)CCCCCCC [pentaerythritol tetraoctanoate]
Details | mass density [kg/m3]
16618 kPa | 979.5
16646 kPa | 979.5
16674 kPa | 979.5
16703 kPa | 979.6
16736 kPa | 979.5
16765 kPa | 979.6
16794 kPa | 979.5
16827 kPa | 979.7
16856 kPa | 979.7
16890 kPa | 979.7
16919 kPa | 979.7
16949 kPa | 979.6
16980 kPa | 979.7
17009 kPa | 979.6
17039 kPa | 979.7
17073 kPa | 979.7
17102 kPa | 979.7
17138 kPa | 979.7
17168 kPa | 979.9
17198 kPa | 979.9
17227 kPa | 979.7
17264 kPa | 979.9
17293 kPa | 979.9
17323 kPa | 979.8
17360 kPa | 979.9
17390 kPa | 979.9
17427 kPa | 979.9
17458 kPa | 980
17488 kPa | 980
17519 kPa | 979.9
17556 kPa | 980
17588 kPa | 980
17619 kPa | 980
17657 kPa | 980
17688 kPa | 980.1
17726 kPa | 980.1
17758 kPa | 980.1
17790 kPa | 980.1
17823 kPa | 980.2
17862 kPa | 980.2
17894 kPa | 980.2
17926 kPa | 980.1
17966 kPa | 980.2
17998 kPa | 980.1
18037 kPa | 980.2
18070 kPa | 980.2
18103 kPa | 980.3
18137 kPa | 980.4
18177 kPa | 980.3
18210 kPa | 980.4
18244 kPa | 980.4
18285 kPa | 980.3
18319 kPa | 980.3
18360 kPa | 980.5
18394 kPa | 980.4
18429 kPa | 980.3
18470 kPa | 980.4
18504 kPa | 980.5
18539 kPa | 980.6
18581 kPa | 980.6
18616 kPa | 980.6
18652 kPa | 980.5
18694 kPa | 980.6
18731 kPa | 980.6
18766 kPa | 980.8
18802 kPa | 980.7
18846 kPa | 980.7
18882 kPa | 980.7
18919 kPa | 980.7
18963 kPa | 980.7
18999 kPa | 980.8
19044 kPa | 980.7
19081 kPa | 980.7
19118 kPa | 980.8
19155 kPa | 980.8
19200 kPa | 980.9
19238 kPa | 980.9
19276 kPa | 980.8
19320 kPa | 980.9
19357 kPa | 980.9
19394 kPa | 980.9
19437 kPa | 981
19472 kPa | 980.9
19537 kPa | 981
19587 kPa | 981
19666 kPa | 981.2
19710 kPa | 981.2
19746 kPa | 981.2
19773 kPa | 981.1
19802 kPa | 981.2
19829 kPa | 981.2
19855 kPa | 981.2
19888 kPa | 981.2
19915 kPa | 981.2
19942 kPa | 981.4
19976 kPa | 981.2
20003 kPa | 981.3
20036 kPa | 981.3
20064 kPa | 981.4
20092 kPa | 981.3
20120 kPa | 981.4
20156 kPa | 981.4
20180 kPa | 981.4
20215 kPa | 981.4
20244 kPa | 981.3
20280 kPa | 981.5
20310 kPa | 981.5
20341 kPa | 981.5
20376 kPa | 981.5
20397 kPa | 981.5
20414 kPa | 981.5
20435 kPa | 981.5
20452 kPa | 981.6
20469 kPa | 981.5
20490 kPa | 981.5
20508 kPa | 981.6
20525 kPa | 981.6
20543 kPa | 981.7
20563 kPa | 981.5
20581 kPa | 981.4
20598 kPa | 981.6
20619 kPa | 981.6
20637 kPa | 981.5
20658 kPa | 981.6
20676 kPa | 981.7
20694 kPa | 981.6
20715 kPa | 981.7
20733 kPa | 981.6
20751 kPa | 981.7
20769 kPa | 981.6
20790 kPa | 981.8
20808 kPa | 981.7
20830 kPa | 981.8
20848 kPa | 981.6
20866 kPa | 981.7
20884 kPa | 981.7
20905 kPa | 981.7
20923 kPa | 981.9
20942 kPa | 981.7
20964 kPa | 981.8
20982 kPa | 981.9
21004 kPa | 981.8
21022 kPa | 981.9
21040 kPa | 981.9
21059 kPa | 981.9
21081 kPa | 981.8
21099 kPa | 981.9
21118 kPa | 982
21140 kPa | 981.8
21159 kPa | 982
21181 kPa | 982
21200 kPa | 981.9
21219 kPa | 981.9
21238 kPa | 982
21258 kPa | 981.8
21280 kPa | 981.9
21299 kPa | 982
21318 kPa | 982
21341 kPa | 982.1
21360 kPa | 982
21379 kPa | 982.1
21402 kPa | 982.1
21421 kPa | 982.1
21440 kPa | 982
21460 kPa | 982
21483 kPa | 982
21502 kPa | 982.1
21525 kPa | 982.1
21545 kPa | 982.1
21564 kPa | 982.1
21584 kPa | 982.1
21607 kPa | 982.2
21626 kPa | 982
21647 kPa | 982.2
21670 kPa | 982.1
21690 kPa | 982.2
21710 kPa | 982.1
21730 kPa | 982
21755 kPa | 982.2
21775 kPa | 982.2
21795 kPa | 982.3
21815 kPa | 982.3
21839 kPa | 982.3
21859 kPa | 982.2
21879 kPa | 982.2
21898 kPa | 982.2
21922 kPa | 982.3
21943 kPa | 982.2
21963 kPa | 982.3
21987 kPa | 982.4
22008 kPa | 982.4
22033 kPa | 982.3
22054 kPa | 982.4
22074 kPa | 982.4
22094 kPa | 982.3
22115 kPa | 982.4
22140 kPa | 982.4
22160 kPa | 982.5
22185 kPa | 982.5
22205 kPa | 982.4
22226 kPa | 982.4
22251 kPa | 982.5
22271 kPa | 982.4
22292 kPa | 982.4
22318 kPa | 982.5
22339 kPa | 982.5
22360 kPa | 982.5
22382 kPa | 982.4
22407 kPa | 982.7
22428 kPa | 982.6
22453 kPa | 982.7
22474 kPa | 982.6
22496 kPa | 982.5
22517 kPa | 982.5
22543 kPa | 982.6
22564 kPa | 982.6
22586 kPa | 982.4
22612 kPa | 982.6
22634 kPa | 982.6
22655 kPa | 982.6
22681 kPa | 982.8
22703 kPa | 982.7
22725 kPa | 982.7
22822 kPa | 982.8
22844 kPa | 982.8
22866 kPa | 982.8
22889 kPa | 982.8
22916 kPa | 982.7
22938 kPa | 982.9
22961 kPa | 982.8
22987 kPa | 982.8
23010 kPa | 982.8
23032 kPa | 982.9
23059 kPa | 982.8
23082 kPa | 982.9
23104 kPa | 982.8
23132 kPa | 983
23154 kPa | 982.9
23177 kPa | 982.9
23204 kPa | 982.9
23227 kPa | 982.9
23250 kPa | 983
23278 kPa | 983
23301 kPa | 982.9
23324 kPa | 983
23348 kPa | 982.9
23375 kPa | 983.1
23398 kPa | 983.1
23422 kPa | 983.1
23450 kPa | 983
23473 kPa | 983
23497 kPa | 983.1
23525 kPa | 983.2
23549 kPa | 983.1
23573 kPa | 983.2
23597 kPa | 983.1
23625 kPa | 983.2
23649 kPa | 983.1
23672 kPa | 983.2
23701 kPa | 983.3
23725 kPa | 983.2
23753 kPa | 983.2
23777 kPa | 983.1
23801 kPa | 983.2
23831 kPa | 983.2
23857 kPa | 983.3
23881 kPa | 983.3
23905 kPa | 983.4
23934 kPa | 983.2
23959 kPa | 983.3
23983 kPa | 983.4
24008 kPa | 983.3
24038 kPa | 983.2
24062 kPa | 983.4
24087 kPa | 983.3
24117 kPa | 983.4
24142 kPa | 983.3
24168 kPa | 983.5
24194 kPa | 983.5
24219 kPa | 983.5
24248 kPa | 983.5
24273 kPa | 983.5
24304 kPa | 983.4
24329 kPa | 983.6
24354 kPa | 983.5
24385 kPa | 983.5
24410 kPa | 983.5
24436 kPa | 983.5
24466 kPa | 983.6
24492 kPa | 983.7
24518 kPa | 983.6
24544 kPa | 983.7
24576 kPa | 983.6
24601 kPa | 983.7
24632 kPa | 983.6

Reference: the NIST ThermoML archive (doi:10.1021/je060271a)
